Laboratory results taken from patent US20200147060A1, “COMPOSITIONS AND METHODS OF TREATING CANCER” (UNIVERSITY OF IOWA RESEARCH FOUNDATION, priority 2018, published 2020).
“Also recorded” adds a separate entry of the source. Where two headings read alike, the source gives them in different places.

Key:
[1] = test system: metastatic melanoma; conditions: cited from earlier work; for progression-free survival (time tumor progression is slowed): melanoma patients, average
[2] = cited from earlier work; for tolerability in patients: reported clinical trials
[3] = test system: A375 melanoma cells; assay: Clonogenic survival assay; type: cell-based, human; conditions: for development / acquisition of resistance to MAPKi (clonogenic survival): secondary agent combined with MAPKih (Vem 5 μM; Cobi 0.1 μM), PBA 2 mM, HCQ 12 μM
Protocol: To determine if the observed MAPKi-induced GSH imbalance plays a causal role in development of resistance, clonogenic survival assays were conducted in which cells were treated with GSH-synthesis inhibitor buthionine sulfoximine (BSO) (0.5 mM) with and without Vem. BSO depletes cellular GSH by inhibiting GSH synthesis via competitive inhibition of gamma-glutamylcysteine synthetase.

[4] = test system: A375 cells; assay: Expression of ER-stress/UPR markers (GRP78/BiP, eIF2α); type: cell-based, human
Protocol: The GSH/GSSG ratio is known to be a fundamental buffering parameter of the ER, and ER-stress responses have been implicated in the initiation of autophagy and acquisition of resistance to MAPKih. Thus, the impact of MAPKi-induced GSH imbalance on the expression of ER-stress response proteins was assessed. Changes in UPR markers GRP78 (BiP) and eI2Fa (phospho-eI2Fa to inactivated eI2Fa) were determined by western blot in A375 cells treated with Vem alone and in combination with Cobi (FIGS. 2A-C). […] To explore the role of MAPKi-induced GSH imbalance on activation of UPR, similar time-course experiments were performed to monitor the expression of UPR markers with continuous MAPKi with and without GSH depletion (using BSO). Depletion of the GSH pool using BSO in this way rendered the cells incapable of initiating the ER-stress response and no increase in the expression of GRP78 was seen when A375 cells were treated continuously with Vemurafenib in the presence of BSO (FIG. 2D).

[5] = test system: MAPKi-resistant 451LuBR melanoma xenografts; assay: 451LuBR (BRAFi resistant melanoma) xenograft mouse model; type: in vivo, mice
Protocol: FIGS. 5A-5F. Pharmacologically Inhibiting Autophagy and ER-stress Simultaneously in Combination with MAPKih Improve Overall Survival in Vivo. Simultaneous inhibition of autophagy and ER-stress with MAPKih (Vem and Vem+Cobi) improves outcome in melanoma tumor bearing mice. (A-D) Simultaneous inhibition of ER-stress using PBA (250 mg kg^−1 twice a day) and autophagic flux using (HCQ 10 mg kg^−1 twice a day) with MAPKih (Vem 16 mg kg^−1 twice a day; Cobi 1 mg kg^−1 once a day) improves outcome in mice bearing MAPKi-sensitive A375 melanoma xenografts (N=13). (A) estimated tumor growth curves in response to PBA and HCQ with Vem; (B) estimated tumor growth curves in response to PBA and HCQ with Vem+Cobi; (C) overall survival in response to PBA and HCQ with Vem; (D) overall survival in response to PBA and HCQ with Vem+Cobi. (E, F) Simultaneous inhibition of ER-stress using PBA (250 mg kg^−1 twice a day) and autophagic flux using (HCQ 6.6 mg kg^−1 twice a day) with MAPKih (Vem 10 mg kg^−1 twice a day) improves outcome in mice bearing MAPKi-resistant 451LuBR melanoma xenografts (N=10); (E) estimated tumor growth curves in response to PBA and HCQ with Vem; and (F) overall survival in response to PBA and HCQ with Vem.
The potential for simultaneous inhibition of ER-stress and autophagy in overcoming resistance to MAPKih was further explored using a 451LuBR (BRAFi resistant melanoma) cell-line xenograft mouse model treated in the same way. Predictably, administering Vem alone had no effect of tumor growth and overall survival, establishing that these tumors are resistant to BRAFi.

[6] = test system: A375-CG-LC3B cells; assay: Autophagic flux (mCherry:EGFP ratio) by flow cytometry; type: cell-based, human
From the text: (§1) UPR responses signal the activation of cytoprotective pathways such as autophagy. The role of GSH in mediating the acquisition of resistance was further explored by examining autophagy and autophagic flux responses to MAPKi in A375 metastatic melanoma cells.
Briefly, A375-CG-LC3B cells were obtained using a retroviral vector containing a coding sequence for a mCherry-EGFP-LC3B tandem protein (pBABE-puro mCherry-EGFP-LC3B, #22418, Addgene). The retrovirus was packaged in GP2-293 cells by co-transfection of 1 μg of viral DNA constructs and 1 μg of envelope plasmid (pVSV-G) in 20 μL PolyFect transfection reagent (Qiagen) for 48 hours at 37° C., 5% CO2. Virus-rich media was collected, aliquoted, and stored at −80° C. Cells were infected using the virus-rich media in DMEM (high glucose) for 12 h followed by incubation in complete media (high-glucose DMEM with 10% FBS) for 24 h. […] Autophagy was quantified as autophagic flux (Af) using A375-CG-LC3B cells.
Where Fmcherry is mcherry fluorescence measured using the 532 nm laser and FGFP is GFP fluorescence measured using the 488 nm laser on LSR II. […] Samples were analyzed on an LSR II flow cytometer (BD). Af was calculated for live, non-apoptotic (Hoechst negative, Annexin V negative) population using the derived parameter function in Flow Jo software (V10.4). […]

[7] = test system: A375 BRAFV600E mutant melanoma cells; assay: Glutathione (GSH, GSSG) levels in cells under prolonged MAPKi; type: cell-based, human
From the text: (§2) Initial response rates to MAPKih (BRAFih and BRAFih+MEKih) are often significant (and sometimes remarkable), but melanoma almost invariably (within months) develops resistance to these treatments. It has been further documented that continuous MAPKi brings about changes in cellular metabolism accompanied with a shift in metabolism from glycolysis to oxidative phosphorylation in vitro. Changes were examined in metabolism and oxidative state of A375 BRAFV600E mutant melanoma cells from initiation of BRAFih (Vem, 5 μM) through the acquisition of resistance (approximately 30 days). […] Changes in cellular metabolism coincided with a nearly identical pattern in the cellular redox state of the cell when quantified by the method of DHE oxidation by fluorescence intensity. […] Considering the critical relationship between cellular responses to oxidative stress and the glutathione cellular redox buffer, the changes in glutathione (GSH) levels and the ratio of GSH to the oxidized form (GSH:GSSG) with prolonged MAPKi in the A375 cells treated with Vem (5 μM) were evaluated over the same time period (FIG. 1D).

[8] = test system: MAPKi-sensitive A375 melanoma xenografts; assay: A375 xenograft bearing mice treated with MAPKih with or without PBA and HCQ; type: in vivo; conditions: Vem 16 mg/kg twice a day, Cobi 1 mg/kg once a day, PBA 250 mg/kg twice a day i.p., HCQ 10 mg/kg twice a day
Protocol: To further explore the potential of simultaneous pharmacological inhibition of ER-stress and autophagy in preventing resistance to MAPKih, A375 xenograft bearing mice (FIGS. 5A-D) were treated with MAPKih or MAPKih in combination with PBA (250 mg kg-1 per dose, twice a day, i.p.) and HCQ (10 mg kg-1 per dose, twice per day, oral gavage). […] The experimental groups included MAPKi by Vem (BRAFih) (16 mg kg-1 per dose, twice a day, oral gavage) alone and in combination with Cobi (MAPKih) (1 mg kg-1 per dose, once a day, oral gavage).

[9] = test system: A375 BRAFV600E mutant melanoma cells; assay: DHE oxidation (cellular redox state) by fluorescence intensity; type: cell-based, human; conditions: Vem 5 μM; subsided with acquisition of resistance
From the text: as §2

[10] = test system: A375 BRAFV600E mutant melanoma cells; assay: Oxygen consumption / extracellular acidification (Seahorse metabolic profiling); type: cell-based, human; conditions: Vem 5 μM continuous; plateaued within approximately 2 weeks
Protocol: (A) The ratio of basal metabolic oxygen consumption (BMOC)/extracellular acidification rate (ECAR) in response to continuous exposure to 5 μM Vem (N=6) as determined by Seahorse metabolic profiling; (B) Measurement of cellular pro-oxidant levels as determined by dyhdroethidium (DHE) oxidation in response to 5 μM Vem (N=3); (C) GSSG:GSH in response to Vem (N=2); (D) total cellular GSH in response to Vem (N=2).

[11] = test system: A375 metastatic melanoma cells; assay: Autophagosome area fraction (TEM) and LC3B-II expression; type: cell-based, human
From the text: as §1

[12] = test system: 451 Lu melanoma cells; assay: Clonogenic survival assay; type: cell-based; conditions: ME added to the combination of vem and BSO
Protocol: FIGS. 7A-7L. Reduced Thiols Play a Vital Role in Development of Resistance to MAPKi. (A-E) Reduced thiols play a vital role in development of resistance to MAPKi in vitro. Changes in (A) cellular concentration of reduced glutathione (GSH, nmoles/mg protein) (B) cellular concentration of oxidized glutathione (GSSG, nmoles/mg protein) of A375 melanoma cells when treated with buthionine sulfoximine (BSO, 0.5 mM) and 2-mercaptoethanol (ME, 150 μM) in presence of vemurafenib (Vem, 5 μM) (N=3). Difference in clonogenic survival of A375 (N=2, n=3) and 451 Lu (N=1, n=3) melanoma cells when treated with vem alone compared to (C) vem in combination with ME and (D) vem in combination with BSO. (E) Addition of ME to the combination of vem and BSO rescues clonogenic survival in A375 and 451 Lu melanoma cells. […] Spider plots show individual tumor growth rates in A375 tumor bearing mice (N=8) when (F) untreated; (G) treated with BSO (15 mM in drinking water); (H) treated with AIN-76A rodent diet mixed with vemurafenib (PLX4720); (I) combination of AIN-76A rodent diet mixed with vemurafenib (PLX4720) with BSO. (J) Levels of total cellular GSH in tumor tissue obtained from untreated mice and mice treated with BSO. (K) Progression Free Survival (PFS) and (L) Overall survival (OS). ±SEM; *p=0.01 to 0.05, **p=0.001 to 0.01 ****P<0.0001.

[13] = Vem 10 mg/kg, PBA 250 mg/kg, HCQ 6.6 mg/kg, each twice a day, compared to control
[14] = A375 cells, prolonged MAPKi (Vem 5 μM)

CC(C)(C)c1nc(-c2cccc(NS(=O)(=O)c3c(F)cccc3F)c2F)c(-c2ccnc(N)n2)s1 [dabrafenib, Dabrafenib]
time until resistance occurs ([1]; clinical trial data): 6 to 7 months

CCCCS(=N)(=O)CCC(N)C(=O)O [BSO, L-buthionine-[S,R]-sulfoximine]
tolerability in patients [2]: well-tolerated
clonogenic survival ([3]; BSO 0.5 mM alone, without MAPKih): did not affect
development / acquisition of resistance to MAPKi (clonogenic survival) ([3]; BSO 0.5 mM): completely inhibits acquisition of resistance; also recorded: prevents acquisition of resistance
expression of GRP78 (BiP) ([4]; continuous Vem in the presence of BSO 0.5 mM): diminished

O=C(O)CCCc1ccccc1 [PBA, phenylbutyric acid]
tolerated dose ([2]; patients suffering from urea cycle disorders): up to 27 g per day
tolerability in patients [2]: safely administered

CCCS(=O)(=O)Nc1ccc(F)c(C(=O)c2c[nH]c3ncc(-c4ccc(Cl)cc4)cc23)c1F [Vem, Vemurafenib]
median / overall survival [5, 13]: no effect
tumor growth rate [5, 13]: no effect
progression-free survival (time tumor progression is slowed) ([1]; listed as Vemurafenib): about 7.2 months
progression-free survival (time tumor progression is slowed) ([1]; listed as vemurafenib): 7.2 months
autophagic flux ([6]; continuous MAPKi (Vem 5 μM; Cobi 0.1 μM) versus untreated cells): increased
expression of ER-stress markers ([4]; continuous MAPKi, later decrease to pre-treatment levels): gradual increase
total GSH concentration after adaptation ([7]; >170 d Vem treatment, versus untreated control cells): re-equilibrated to levels comparable to untreated control cells
depletion of glutathione (GSH) [7, 14]: 68%
increase in oxidized glutathione (GSSG) [7, 14]: 30 fold
rate of tumor growth [8]: similar
oxidation of DHE [9]: initial increase
ratio of oxygen consumption linked to basal mitochondrial respiration (OCR) and extracellular acidification rate (ECAR) [10]: initial increase
area fraction of cells covered by autophagosomes (TEM) ([11]; Vem 5 μM): significant increase
expression of autophagic flux marker LC3B-II ([11]; continuous MAPKi by Vem): significant increases

OCCS [ME, 2-mercaptoethanol]
clonogenic survival on addition of ME to vem and BSO ([3]; ME 150 μM, BSO 0.5 mM, Vem 5 μM): reversed; also recorded: rescues
clonogenic survival on addition of ME to vem and BSO [12]: rescues

CCN(CCO)CCCC(C)Nc1ccnc2cc(Cl)ccc12 (stereo not shown) [HCQ, Hydroxychloroquine]
median / overall survival [5, 13]: significantly enhanced
complete response (complete remissions) ([5]; share of mice): 20%
tolerability in patients [2]: well tolerated
autophagic flux induced by MAPKi ([6]; secondary agent (BSO 0.5 mM, PBA 2 mM, HCQ 12 μM) added to MAPKih, versus MAPKih alone): decreased
development / acquisition of resistance to MAPKi (clonogenic survival) ([3]; BSO 0.5 mM): prevented resistance
